Measurements: patent US4057530A, “2-Phenyl-indole derivatives and process for preparing the same” (priority 1974, dated 1977)
Like-named read-outs stand apart in the source and are kept apart here.

Experiments:
mice [1] = assay: Acute toxicity by oral route in mice (LD50); type: in vivo; conditions: LD50 study
Experimental: (§1) The study of the acute toxicity of the stabilizers listed below was carried out by determining the dose of substance which provoked the death of 50% of the treated animals (LD50). A gummy suspension of the substance under study was administered by oral route to groups of at least ten mice and the following results were observed: […]

[2] = Acute toxicity by oral route in mice (LD50); type: in vivo; conditions: mouse, in vivo, gummy suspension
Experimental: as §1

[3] = Static thermostability of stabilized resin, simplified method (GARDNER sub-scale), Compound D; conditions: 185° C
Experimental: (§2) The stabilizing power of the substances of the invention was studied from two points of view:
(§3) These studies were performed with six different formulae of vinyl resins (hereinafter referred to as Compounds).
(§4) The different compounds were mixed and calendered in a mixer of which the cylinders were heated to 160° C. The rigid sheets so obtained were then heated in an oven to a temperature between 180° C and 215° C, until incipient carbonization.
(§5) A stove with rotating drums, ventilated and equipped with a thermostat was used for this operation. In the trials described hereunder, the behaviour of a sheet containing the stabilizer to be tested was compared to that of a sheet of the same formula but containing 2-phenyl-indole as stabilizer.
(§6) 2. It is also possible to use a simplified method which is more rapid and with which valid results are also obtained: a reference scale is drawn up with sheets of thermally treated polyvinyl chloride, of which the colourations have been definitely determined in GARDNER degrees as above. A GARDNER sub-scale is thus obtained in polyvinyl chloride sheets which can be directly compared to the sheets to be tested without using the comparator.

[4] = Static thermostability of stabilized resin, simplified method (GARDNER sub-scale), Compound E; conditions: 185° C
Experimental: as §2, §3, §4, §5, §6

mice [5] = type: in vivo
Experimental: as §1

[6] = Static thermostability of stabilized resin, simplified method (GARDNER sub-scale), Compound A; conditions: 210° C
Experimental: as §2, §3, §4, §5, §6
Finally, trials were carried out with Stabilizers 15, 16 and 17 and with 2-phenyl-indole. Compound A was used and the temperature was 210° C.

[7] = Extractibility of the stabilizer from Compound A containing Stabilizer 16
Experimental: This study was carried out in accordance with the requirements of the Food and Drug Administration (U.S.A.).
The extractions were performed in semi-rigid bottles, prepared with Compounds Nos. 609 and 675, and with the following solvents: water, an aqueous solution of acetic acid (3%), ethanol-water 50/50, heptane.
The ratio of the volume of solvent to the surface of plastic material exposed to extraction was about 1 cm^2 to […] of solvent, taking into account the geometric characteristics of the bottles.
The quantity of stabilizer extracted was determined by colorimetric assay using p-dimethylaminobenzaldehyde, in accordance with the method described in Analytical Chemistry 36, 425-26 (1964).
The amounts of stabilizer assayed are expressed in μg per liter of extraction solvent or, which is the same, per 1000 cm^2 of surface submitted to extraction.
The same trials were carried out with Compound A containing 2-(4'-dodecylthio-phenyl)-indole (Stabilizer 16) as stabilizer and the following results were obtained: […]

Compound | Toxic symptoms (mice [1]) | LD50 [2] [mg/kg] | LDO (maximal dose which does not provoke any death) (mice [5]; mouse, in vivo, po) [mg/kg] | Static thermostability compared with 2-phenyl-indole [6] | Colouration of sheet (GARDNER sub-scale) ([6]; 0 min) | Colouration of sheet (GARDNER sub-scale) ([6]; 3 min) | Colouration of sheet (GARDNER sub-scale) ([6]; 6 min) | Colouration of sheet (GARDNER sub-scale) ([6]; 9 min) [GARDNER degrees] | Colouration of sheet (GARDNER sub-scale) ([6]; 12 min) [GARDNER degrees] | Colouration of sheet (GARDNER sub-scale) ([6]; 15 min) [GARDNER degrees] | Colouration of sheet (GARDNER sub-scale) ([6]; 18 min) | also measured
CCCCC(CC)COc1ccc(-c2cc3ccccc3[nH]2)cc1 (stereo not drawn) [Stabilizer 7, 2-(2"-ethyl-4'-hexyloxy-phenyl)-indole] | none | > 2000 | – | – | – | – | – | – | – | – | – | Colouration given to the co-polymer [3]: less yellow with Stabilizer 7 than with 2-phenyl-indole; Static thermostability compared with 2-phenyl-indole [3]: markedly superior to 2-phenyl-indole; Colouration of sheet (GARDNER sub-scale) ([3]; 0 min): < 1 GARDNER degrees; Colouration of sheet (GARDNER sub-scale) ([3]; 10 min): < 2 GARDNER degrees; Colouration of sheet (GARDNER sub-scale) ([3]; 20 min): 2 GARDNER degrees; Colouration of sheet (GARDNER sub-scale) ([3]; 30 min): < 3 GARDNER degrees; Colouration of sheet (GARDNER sub-scale) ([4]; 0 min): < 1 GARDNER degrees; Colouration of sheet (GARDNER sub-scale) ([4]; 10 min): < 1 GARDNER degrees; Colouration of sheet (GARDNER sub-scale) ([4]; 20 min): < 2 GARDNER degrees; Colouration of sheet (GARDNER sub-scale) ([4]; 30 min): < 3 GARDNER degrees
CCCCSc1ccc(-c2cc3ccccc3[nH]2)cc1 [Stabilizer 15, 2-(4'-butylthio-phenyl)-indole] | – | – | > 3000 | very rapidly found to be superior to 2-phenyl-indole | 1 GARDNER degrees | 1 GARDNER degrees | 2 GARDNER degrees | 5 | 10 | 13 | burnt | Toxic symptoms (mice [5]; oral, mice, LDO study): none
CCCCCCCCCCCCSc1ccc(-c2cc3ccccc3[nH]2)cc1 [Stabilizer 16, 2-(4'-n-dodecylthio-phenyl)-indole] | – | – | > 3000 | very rapidly found to be superior to 2-phenyl-indole | 1 GARDNER degrees | 1 GARDNER degrees | 2 GARDNER degrees | 5 | 10 | 13 | burnt | Toxic symptoms (mice [5]; mouse, in vivo, po): none; Amount of stabilizer extracted ([7]; 3% aqueous acetic acid, 20 days): < 3 μg per liter; Amount of stabilizer extracted ([7]; aqueous ethanol 50/50, 9 days): < 10 μg per liter; Amount of stabilizer extracted ([7]; heptane, 48 hours): 175 μg per liter; Amount of stabilizer extracted ([7]; water, 10 days): < 3 μg per liter
Sc1ccc(-c2cc3ccccc3[nH]2)cc1 [Stabilizer 1, 2-(4'-mercapto-phenyl)-indole] | none | > 2000 | – | superiority of Stabilizer 1 over 2-phenyl-indole | 1 GARDNER degrees | 2 GARDNER degrees | 2.5 GARDNER degrees | 7 | 11 | 12 | – | –
Nc1ccccc1-c1cc2ccccc2[nH]1 [Stabilizer 23, 2-(2'-amino-phenyl)-indole] | none | > 2000 | – | superior to 2-phenyl-indole | pink | pink | pink | 4 | 6 | 12 | – | –
